Patent US20120208182A1, “GENETIC TEST FOR LIVER COPPER ACCUMULATION IN DOGS AND LOW COPPER PET DIET” (priority 2009, published 2012)

Key:
[1] = Pharmacokinetic study of oral zinc gluconate, plasma zinc by atomic absorption spectrometry; type: in vivo, Labrador Retrievers; conditions: for V_F: volume of distribution: food withheld 12 h before dosing
Experimental: Two unrelated nine-year old, healthy Labrador Retrievers (1 female and 1 male) were used in a pharmacokinetic study. Food was withheld for a 12-hour period prior to oral administration of zinc, and during the initial 6-hour testing period. Water was freely available. […] Heparinized blood samples (4 ml) were collected from the jugular vein before dosing (time 0) and 15, 30, 45, 60, 90, 120 minutes, and 4, 8, 12 and 24 hours after application of the drug. Plasma was stored at
−20° C. until analysis for zinc using atomic absorption spectrometry. […]

Labrador Retrievers [2] = test: Diet trial with randomized, placebo-controlled zinc application: quantitative hepatic copper by neutron activation analysis; type: in vivo, dog; conditions: 7.5 mg/kg PO BID versus placebo, all dogs on diet
Experimental: (§1) All dogs were fed the same diet. […] The pharmacist was the only person aware of group allocations until completion of the study. Hepatic copper concentrations and histopathology were assessed along with clinical examinations and blood-work before and after treatment for a mean of 8 months (range 5-13), and 16 months (range 12-25). Plasma zinc concentrations were measured at additional time points during treatment.
All dogs had completed their treatment with penicillamine prior to the start of this study. A medical history was obtained from all dogs and a physical examination was performed. […] Two biopsies were fixed in 10 percent neutral buffered formalin, and one biopsy was stored in a copper-free container for quantitative copper determination.
A quantitative assay for copper in liver tissue was performed by neutron activation analysis, according to a protocol described by Teske et al, using the facilities described by Bode (Bode, P. (1990) Journal of Trace and Microprobe Techniques 8: 139; Teske et al. (1992) Vet Rec 131: 30-32). Quantitative copper concentrations were measured in lyophilised liver biopsies and reported in mg/kg dry weight liver.
All dog owners were provided with the same specially manufactured diet. […] Metabolizable energy (measured according to Association of American Feed Control Officials protocol): 1650 kcal/kg as fed). […]

[3] = Diet trial: blood examinations (bile acids, ALP, ALT, plasma zinc); type: in vivo, dog
Experimental: as §1
All dogs had completed their treatment with penicillamine prior to the start of this study. A medical history was obtained from all dogs and a physical examination was performed. Na-citrated blood samples were taken for analysis of a coagulation profile, including prothrombin time (PT), activated partial thromboplastin time (aPTT) and fibrinogen. Heparin- and EDTA-blood was sampled for analysis of the hepatobiliary enzymes alkaline phosphatase (ALP), alanine aminotransferase (ALT), of bile acids (BA), and for measurement of the platelet count, and plasma zinc concentrations. Liver biopsies were taken according to the Menghini technique given by Rothuizen (Rothuizen J, I. T. (1998) Tijdschr Diergeneeskd 123: 246-252). At least three liver biopsies were taken from each dog. Two biopsies were fixed in 10 percent neutral buffered formalin, and one biopsy was stored in a copper-free container for quantitative copper determination.

Labrador Retrievers [4] = test: Diet trial: observed adverse effects; type: in vivo, dog; conditions: in 3 dogs of group 1; immediately after the tablets, resolved when tablets were mixed with the diet
Experimental: as §1
Owners were instructed to give the tablets mixed with small amounts of their diet 30 minutes before feeding. Neither the owner nor the clinician was informed about which treatment each dog received.

Labrador Retrievers [5] = test: Hepatic copper before penicillamine, after penicillamine and after diet (Example 5, FIG. 3); type: in vivo, dog; conditions: all dogs on diet, data not shown
Experimental: FIG. 3 illustrates the effectiveness of the diet of the invention on hepatic copper concentrations (mg/kg dry weight) in 18 Labrador Retrievers compared with the effect of penicillamine alone. The key to the x-axis is as follows: 1=pre-penicillamine, 2=post-penicillamine/pre-food, 3=post-food. […] The dotted line represents the normal level of hepatic copper for adult dogs.
During an investigation of the effect of zinc on hepatic copper concentration, hepatic copper concentration was measured in 18 pure-bred Labrador Retrievers. Half of the dogs were provided with a supplement of zinc and the other half were provided with a placebo. All of the dogs were fed the diet of Example 2. Hepatic copper concentration was measured using the method of Example 2 at 3 time points: (1) before treatment with penicillamine; (2) after treatment with penicillamine but before treatment with the diet of Example 2; and (3) after the diet treatment.

Question: For zinc gluconate, which “AUC: area under the curve” value ([1]; Dog 1, 10 mg/kg oral) is on record?
Answer: 63.35 µg·h/mL

Question: And the “K01: absorption rate constant” value ([1]; Dog 1, 10 mg/kg oral)?
Answer: 0.5672 h⁻¹

Question: And the “K10: elimination rate constant” value ([1]; Dog 1, 10 mg/kg oral)?
Answer: 0.05373 h⁻¹

Question: And the “Tmax: time of maximum concentration” value ([1]; Dog 1, 10 mg/kg oral)?
Answer: 4.59 h

Question: And the “V_F: volume of distribution” value ([1]; Dog 1, 10 mg/kg oral)?
Answer: 2937.872 ml/kg bodyweight

Question: What about the “AUC: area under the curve” value ([1]; Dog 2, 5 mg/kg oral) of the same substance?
Answer: 51.99 µg·h/mL

Question: What about the “K01: absorption rate constant” value ([1]; Dog 2, 5 mg/kg oral) of the same substance?
Answer: 1.161 h⁻¹

Question: What about the “K10: elimination rate constant” value ([1]; Dog 2, 5 mg/kg oral) of the same substance?
Answer: 0.03789 h⁻¹

Question: And the “Tmax: time of maximum concentration” value ([1]; Dog 2, 5 mg/kg oral)?
Answer: 3.048 h

Question: What about the “V_F: volume of distribution” value ([1]; Dog 2, 5 mg/kg oral) of the same substance?
Answer: 2538.689 ml/kg bodyweight

Question: And the “calculated accumulation rate R” value ([1]; R=1/(1−exp(−k10*24)))?
Answer: 1.52

Question: And the “apparent oral clearance (CL/F), mean of both dogs” value ([1]; mean of dog 1 and dog 2)?
Answer: 127.0139 mL/h/kg

Question: What about the “effect of adjunctive zinc on hepatic copper decrease by diet” value (Labrador Retrievers [2]) of the same substance?
Answer: did not amplify the de-coppering effect

Question: And the “plasma zinc concentration, group 1 versus group 2” value ([3]; at any of the three examinations (start, recheck-1, recheck-2))?
Answer: No difference

Question: And the “mean plasma zinc concentration” value ([3]; group 1, after the initial month of treatment, sampled 2-6 hours after zinc application, start 95)?
Answer: 165 µg/dL

Question: And the adverse effects (Labrador Retrievers [4])?
Answer: Vomiting, anorexia, and diarrhea

Question: What about the “copper levels in dogs treated with zinc versus placebo” value (Labrador Retrievers [5]) of the same substance?
Answer: no significant difference
